The text below walks through data of US5994356A, “Carboxylic acid derivatives, medicaments comprising these compounds, their use and processes for their production” (priority 1996, dated 1999).

One may read the EC50 as the midpoint of the concentration-response curve. A word on the IC50: it is the concentration that inhibits the measured activity by half. Low readings indicate higher potency, high ones lower potency.

One data set deals with platelet aggregation. Nature of the data set: Antithrombotic action: collagen-induced platelet aggregation in platelet-rich plasma (Born and Cross). It counts as cell-based. Particulars: Homo sapiens, 10 min, platelet-rich plasma of healthy subjects, incubated 10 minutes at 37° C., 50% change in optical density, read-out: Inhibition of platelet aggregation EC50. The method, then: 2. Antithrombotic Action Methodology Platelet aggregation is measured according to the method of Born and Cross (J. Physiol. 170, 397 (1964)) in platelet-rich plasma of healthy subjects. To inhibit clotting, the blood is treated with sodium citrate 3.14% in the volume ratio 1:10. Collagen-induced Aggregation The course of the decrease in the optical density of the platelet suspension is measured photometrically and recorded after addition of the aggregation-inducing substance. From the angle of inclination of the density curve, the aggregation rate is deduced. The point on the curve at which the greatest light transmission is present serves for the calculation of the optical density. The amount of collagen is chosen to be as low as possible, but of course such that an irreversibly running reaction curve results. Commercially available collagen from Hormonchemie, Munich is used. Before the addition of collagen, the plasma is incubated at 37° C. with the substance for 10 minutes in each case. From the measured values obtained, an EC50 which relates to a 50% change in the optical density in the sense of an inhibition of aggregation is determined graphically.

The next data set relates to human platelets. Nature of the data set: Inhibition of the binding of ^3 H-BIBU 52 to human platelets (fibrinogen binding test). Particulars: human platelets in plasma; ^3 H-BIBU 52 5 nM; room temperature, 20 minutes. The method, then:
1. Inhibition of the binding of ^3 H-BIBU 52 to Human Platelets
The free and bound ligand is separated by centrifugation and determined quantitatively by scintillation counting. From the measurements, the inhibition of ^3 H-BIBU 52 binding by the test substance is determined.
To do this, donor blood is taken from an antecubital vein and anticoagulated with trisodium citrate (final concentration 13 mM). The blood is centrifuged at 170×g for 10 minutes and the supernatant platelet-rich plasma (PRP) is removed. The residual blood is rapidly centrifuged once more to obtain plasma. The PRP is diluted 1:10 with autologous plasma. 750 μl are incubated with […] of physiological saline solution, 100 μl of test substance solution, 50 μl of ^14 C-sucrose (3700 Bq) and 50 μl of ^3 H-BIBU 52 (final concentration: 5 nM) at room temperature for 20 minutes. To measure the non-specific binding, instead of the test substance, 100 μl of BIBU 52 (final concentration: 30 μM) is employed. The samples are centrifuged at 10,000×g for 20 seconds and the supernatant is removed. 100 μl thereof are measured to determine the free ligand. The pellet is dissolved in 500 μl of 0.2N NaOH, and 450 μl are mixed with 2 ml of scintillator and 25 μl of 5N HCl and measured. The residual plasma still remaining in the pellet is determined from the ^14 C content, the bound ligand from the ^3 H measurement.

The nature of data set [1]: Plasma levels in Rhesus monkeys after oral administration. The format is in vivo. The conditions noted are these: 1 mg/kg.

Where a name gives a salt, the structure may show the parent alone.

With `O=C(O)COc1ccc(N2CCN(CCC3CCNCC3)CC2=O)cc1` [1(1), 1-(4-Carboxymethyloxyphenyl)-4-[2-(piperidin-4-yl)ethyl]piperazin-2-onedihydrochloride], the EC50 with platelet aggregation is 0.37 µM. Also, the IC50 in the data set with human platelets was found to be 0.36 µM.

`O=C(O)COc1ccc(N2CCN(CCC3CCNCC3)CC2)cc1OCC(=O)O` [1(3), 1-[3,4-Di(carboxymethyloxy)phenyl]-4-[2-(piperidin-4-yl)ethyl]piperazine d ihydrochloride]: the EC50 with platelet aggregation turned out to be 0.11 µM. Moreover, in the data set with human platelets, the IC50 is 0.047 µM.

Take `CC1CN(CCC2CCNCC2)CCN1c1ccc(OCC(=O)O)cc1` (stereo not drawn) [1(7), 1-(4-Carboxymethyloxyphenyl)-2-methyl-4-[2-(piperidin-4-yl)ethyl]piperazine dihydrochloride]: the EC50 with platelet aggregation is 0.24 µM. This compound also displayed a half-maximal inhibitory concentration (IC50) in the data set with human platelets of 0.26 µM.

Consider `CN(CC1CCNCC1)[C@H]1CC[C@H](c2ccc(OCC(=O)O)cc2)CC1` [1(22), trans-1-(4-Carboxymethyloxyphenyl)-4-[(piperidin-4-yl)-N-methylmethylamino]cyclohexane dihydrochloride], for which, in the data set on platelet aggregation, the EC50 came out at 0.37 µM. Further, the IC50 with human platelets was found to be 0.26 µM.

Turning to `COC(=O)COc1ccc(N2CCN(CCC3CCNCC3)CC2C)cc1.Cl.Cl` (stereo not drawn) [2(4), 1-(4-Methoxycarbonylmethyloxyphenyl)-2-methyl-4-[2-(piperidin-4-yl)ethyl]piperazine dihydrochloride], the “period of high plasma levels” value in data set [1] is “more than 8 hours”.

In the case of `O=C(O)CO[C@H]1CC[C@H](N2CCN(CCC3CCNCC3)CC2=O)CC1` [7(1), 1-(trans-4-Carboxymethyloxycyclohexyl)-4-[2-(piperidin-4-yl)ethyl]piperazin-2-one], the EC50 with platelet aggregation came out at 0.25 µM. The same compound showed an IC50 in the data set with human platelets of 0.2 µM.

In the case of `O=C(O)C(Oc1ccc(N2CCN(CCC3CCNCC3)CC2)cc1)c1ccccc1` (stereo not drawn) [7(6), 1-[4-(1-Carboxybenzyloxy)phenyl]-4-[2-(piperidin-4-yl)ethyl]piperazine dihydrochloride], the IC50 in the data set with human platelets amounted to 0.15 µM.

`CC(C)COC(=O)COc1ccc(N2CCN(CCC3CCNCC3)CC2)cc1OCC(=O)OCC(C)C` [9(1), 1-[3,4-Di(isobutyloxycarbonylmethyloxy)phenyl]-4-[2-piperidin-4-yl)ethyl]piperazine dihydrochloride]: the “period of high plasma levels” value in data set [1] is on record as “more than 8 hours”.

Consider `Cl.Cl.O=C(COc1ccc(N2CCN(CCC3CCNCC3)CC2)cc1OCC(=O)OC1CCCCC1)OC1CCCCC1` [9(2), 1-[3,4-Di(cyclohexyloxycarbonylmethyloxy)phenyl]4-[2-(piperidin-4-yl)ethyl]piperazine dihydrochloride], for which the “period of high plasma levels” value in data set [1] is “more than 8 hours”.

For `O=C(O)COc1ccc(N2CCN(CCC3CCNCC3)CC2)cc1` [Example 1, 1-(4-Carboxymethyloxyphenyl)-4-[2-(piperidin-4-yl)ethyl]piperazine dihydrochloride], the EC50 in the data set with platelet aggregation is 0.12 µM. The IC50 in the data set on human platelets worked out at 0.15 µM.

As for `COC(=O)COc1ccc(N2CCN(CCC3CCNCC3)CC2)cc1.Cl.Cl` [Example 2, 1-(4-Methoxycarbonylmethyloxyphenyl)-4-[2-(piperidin-4-yl)ethyl]piperazine dihydrochloride], the “period of high plasma levels” value in data set [1] is on record as “more than 8 hours”.

In the case of `CCOC(=O)COc1ccc(N2CCN(CCC3CCNCC3)CC2)cc1OCC(=O)OCC.Cl.Cl` [Example 9, 1-[3,4-Di(ethoxycarbonylmethyloxy)phenyl]-4-[2-(piperidin-4-yl)ethyl]piperazine dihydrochloride], the “period of high plasma levels” value in data set [1] is on record as “more than 8 hours”.
